Measured values from ChEMBL document CHEMBL1201862, “PubChem BioAssay data set” (2004).
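Values below derive from 48-hour exposures of cells grown in 96-well plates, with endpoints linearly interpolated between the two concentrations bracketing the appropriate inhibition level. GI50 = concentration required for 50% inhibition of growth.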 The source made the active and inactive calls. Rule as the data show it: active = GI50 up to about 1.1 µM and inactive = higher. Where a SMILES comes first, the peptide text is derived from it. [ ]: non-standard residue; d: D form. 2Nal = N[CH](Cc1ccc2ccccc2c1)C(=O)O

Experiments:
Assay in all cases: NCI tumour cell line growth inhibition, 48 h
Hs-578T = test system: Hs-578T
NCI-H226 = test system: NCI-H226
SN12C = test system: SN12C
SK-MEL-2 = test system: SK-MEL-2
IGROV-1 = test system: IGROV-1
CCRF-CEM = test system: CCRF-CEM
MDA-MB-435 = test system: MDA-MB-435
SK-OV-3 = test system: SK-OV-3
K562 = test system: K562
ACHN = test system: ACHN
MCF7 = test system: MCF7
MOLT-4 = test system: MOLT-4
RPMI-8226 = test system: RPMI-8226
SF-295 = test system: SF-295
EKVX = test system: EKVX
SW-620 = test system: SW-620
COLO 205 = test system: COLO 205
A498 = test system: A498
HCC 2998 = test system: HCC 2998
HOP-92 = test system: HOP-92

Compound | GI50 (Hs-578T) | GI50 (NCI-H226) | GI50 (SN12C) | GI50 (SK-MEL-2) | GI50 (IGROV-1) | GI50 (CCRF-CEM) | GI50 (MDA-MB-435) | GI50 (SK-OV-3) | GI50 (K562) | GI50 (ACHN) | GI50 (MCF7) | GI50 (MOLT-4) | GI50 (RPMI-8226) | GI50 (SF-295) | GI50 (EKVX) | GI50 (SW-620) | GI50 (COLO 205) | GI50 (A498) | GI50 (HCC 2998) | GI50 (HOP-92)
Nc1cccnc1NCC1(CO)CCCC1 | > 100 µM (inactive) | > 100 µM (inactive) | > 100 µM (inactive) | > 100 µM (inactive) | > 100 µM (inactive) | > 100 µM (inactive) | > 100 µM (inactive) | > 100 µM (inactive) | > 100 µM (inactive) | > 100 µM (inactive) | > 100 µM (inactive) | > 100 µM (inactive) | > 100 µM (inactive) | > 100 µM (inactive) | > 100 µM (inactive) | > 100 µM (inactive) | > 100 µM (inactive) | > 100 µM (inactive) | > 100 µM (inactive) | –
CC(NC(=O)C(N)Cc1ccccc1)C(=O)NC(Cc1ccc(O)cc1)C(=O)NC(Cc1c[nH]c2ccccc12)C(=O)NC(CCCCN)C(=O)NC(C(=O)NC(C)C(=O)NC(Cc1ccc2ccccc2c1)C(N)=O)C(C)C (centres undefined) (H-FAYWKVA[2Nal]-NH2; configuration not given here) | > 12.5 µM (inactive) | > 12.5 µM (inactive) | > 12.5 µM (inactive) | > 12.5 µM (inactive) | > 12.5 µM (inactive) | > 12.5 µM (inactive) | > 12.5 µM (inactive) | > 12.5 µM (inactive) | > 12.5 µM (inactive) | > 12.5 µM (inactive) | > 12.5 µM (inactive) | – | > 12.5 µM (inactive) | > 12.5 µM (inactive) | > 12.5 µM (inactive) | > 12.5 µM (inactive) | > 12.5 µM (inactive) | > 12.5 µM (inactive) | > 12.5 µM (inactive) | –
C[n+]1c2ccccc2n2c3ccccc3c(NCCc3ccccn3)c(C#N)c21 | 2.81 µM (inactive) | 2.55 µM (inactive) | 1.23 µM (inactive) | 2.61 µM (inactive) | – | 1.25 µM (inactive) | 1.47 µM (inactive) | 3.4 µM (inactive) | 2.21 µM (inactive) | 1.49 µM (inactive) | 0.249 µM (active) | 1 µM (active) | 1.64 µM (inactive) | 2.32 µM (inactive) | 4.06 µM (inactive) | 0.661 µM (active) | 1.68 µM (inactive) | 4.4 µM (inactive) | – | 5.97 µM (inactive)
O=c1cc(CNC2CC3CCC2C3)[nH]c(=O)[nH]1 (centres undefined) | > 100 µM (inactive) | – | > 100 µM (inactive) | > 100 µM (inactive) | > 100 µM (inactive) | > 100 µM (inactive) | > 100 µM (inactive) | > 100 µM (inactive) | > 100 µM (inactive) | > 100 µM (inactive) | > 100 µM (inactive) | > 100 µM (inactive) | > 100 µM (inactive) | > 100 µM (inactive) | > 100 µM (inactive) | > 100 µM (inactive) | > 100 µM (inactive) | > 100 µM (inactive) | > 100 µM (inactive) | –
COc1cccc2c1C(=O)c1c(O)c3c(c(O)c1C2=O)C[C@H](O)C[C@@H]3OC1CC(N)C(O)C(C)O1 (some centres undefined) | 0.802 µM (active) | 1.08 µM (active) | – | 2.02 µM (inactive) | 1.57 µM (inactive) | 0.259 µM (active) | 1.82 µM (inactive) | 2.13 µM (inactive) | 1.79 µM (inactive) | 1.17 µM (inactive) | < 0.01 µM (active) | < 0.01 µM (active) | 1.22 µM (inactive) | 1.44 µM (inactive) | 5.21 µM (inactive) | – | 0.508 µM (active) | < 0.01 µM (active) | – | 2 µM (inactive)
CC(=O)C(C(=O)C(C)(C)C)C(=O)C(C)(C)C | > 100 µM (inactive) | – | > 100 µM (inactive) | > 100 µM (inactive) | – | > 100 µM (inactive) | > 100 µM (inactive) | > 100 µM (inactive) | > 100 µM (inactive) | > 100 µM (inactive) | > 100 µM (inactive) | > 100 µM (inactive) | > 100 µM (inactive) | > 100 µM (inactive) | – | > 100 µM (inactive) | > 100 µM (inactive) | – | > 100 µM (inactive) | > 100 µM (inactive)
CC1=CC(C)(C)[C@H]2O[C@@]3(O)C[C@]4(C)[C@H]5C[C@@](C(C)C)(O[C@H]4c4ccoc4)O[C@H]4[C@]5(C3)O[C@@]1(O)[C@]24O | 18.7 µM (inactive) | > 100 µM (inactive) | > 100 µM (inactive) | > 100 µM (inactive) | > 100 µM (inactive) | > 100 µM (inactive) | > 100 µM (inactive) | > 100 µM (inactive) | > 100 µM (inactive) | > 100 µM (inactive) | > 100 µM (inactive) | > 100 µM (inactive) | > 100 µM (inactive) | > 100 µM (inactive) | > 100 µM (inactive) | > 100 µM (inactive) | > 100 µM (inactive) | – | > 100 µM (inactive) | 83.8 µM (inactive)
O=[Se](O)O | 0.67 µM (active) | 0.828 µM (active) | 1.24 µM (inactive) | 2.6 µM (inactive) | 0.826 µM (active) | – | 3.77 µM (inactive) | 0.984 µM (active) | > 28.2 µM (inactive) | 4 µM (inactive) | 9.75 µM (inactive) | > 20.1 µM (inactive) | 3.29 µM (inactive) | 0.536 µM (active) | 2.11 µM (inactive) | 12.9 µM (inactive) | > 30.7 µM (inactive) | 19 µM (inactive) | > 20.3 µM (inactive) | –
Cc1ccc(S(=O)(=O)NCc2cccc([N+](=O)[O-])c2)cc1 | > 100 µM (inactive) | > 100 µM (inactive) | > 100 µM (inactive) | > 100 µM (inactive) | > 100 µM (inactive) | 27.8 µM (inactive) | > 100 µM (inactive) | > 100 µM (inactive) | – | > 100 µM (inactive) | > 100 µM (inactive) | 0.136 µM (active) | > 100 µM (inactive) | > 100 µM (inactive) | > 100 µM (inactive) | > 100 µM (inactive) | > 100 µM (inactive) | > 100 µM (inactive) | – | > 100 µM (inactive)
[O-]/[N+](=N\c1ccccc1CO)c1ccccc1CO | > 100 µM (inactive) | > 100 µM (inactive) | > 100 µM (inactive) | > 100 µM (inactive) | – | > 100 µM (inactive) | > 100 µM (inactive) | > 100 µM (inactive) | > 100 µM (inactive) | – | > 100 µM (inactive) | > 100 µM (inactive) | > 100 µM (inactive) | – | > 100 µM (inactive) | > 100 µM (inactive) | > 100 µM (inactive) | > 100 µM (inactive) | > 100 µM (inactive) | –
Cc1ccc(/C=N/Nc2ccc3ccccc3n2)s1 | 25.2 µM (inactive) | 80.7 µM (inactive) | 13 µM (inactive) | > 100 µM (inactive) | 16.3 µM (inactive) | > 100 µM (inactive) | 15.8 µM (inactive) | 30.2 µM (inactive) | 16.9 µM (inactive) | 17.3 µM (inactive) | 17.5 µM (inactive) | 9.55 µM (inactive) | 14.2 µM (inactive) | 16.4 µM (inactive) | 4.73 µM (inactive) | 23.2 µM (inactive) | 12.9 µM (inactive) | – | 15.3 µM (inactive) | 19.1 µM (inactive)
COC(=O)C1=C(C(=O)OC)C2(C)CCC(=O)C1O2 (centres undefined) | > 10 µM (inactive) | > 10 µM (inactive) | > 10 µM (inactive) | > 10 µM (inactive) | > 10 µM (inactive) | > 10 µM (inactive) | > 10 µM (inactive) | > 10 µM (inactive) | > 10 µM (inactive) | > 10 µM (inactive) | > 10 µM (inactive) | > 10 µM (inactive) | > 10 µM (inactive) | > 10 µM (inactive) | > 10 µM (inactive) | > 10 µM (inactive) | > 10 µM (inactive) | > 10 µM (inactive) | > 10 µM (inactive) | –
Cn1c(=O)c2nc(CCCCc3nc4c(=O)n(C)c(=S)n(C)c4[nH]3)[nH]c2n(C)c1=S | > 100 µM (inactive) | > 100 µM (inactive) | > 100 µM (inactive) | > 100 µM (inactive) | > 100 µM (inactive) | > 100 µM (inactive) | > 100 µM (inactive) | 45.2 µM (inactive) | > 100 µM (inactive) | > 100 µM (inactive) | > 100 µM (inactive) | – | > 100 µM (inactive) | 88.1 µM (inactive) | 23.4 µM (inactive) | > 100 µM (inactive) | > 100 µM (inactive) | > 100 µM (inactive) | – | 45.7 µM (inactive)
O=C1NC(=O)[C@@H](OCC2CCCCC2)[C@@H]2OCC3OC(C(O)C3O)C12 (some centres undefined) | > 100 µM (inactive) | > 100 µM (inactive) | > 100 µM (inactive) | > 100 µM (inactive) | > 100 µM (inactive) | > 100 µM (inactive) | > 100 µM (inactive) | > 100 µM (inactive) | – | > 100 µM (inactive) | > 100 µM (inactive) | > 100 µM (inactive) | – | > 100 µM (inactive) | > 100 µM (inactive) | > 100 µM (inactive) | > 100 µM (inactive) | > 100 µM (inactive) | > 100 µM (inactive) | –
Nc1cccc(Nc2nc3ccccc3nc2NS(=O)(=O)c2ccccc2)c1 | 41.7 µM (inactive) | 38 µM (inactive) | 26 µM (inactive) | 15.7 µM (inactive) | 24.5 µM (inactive) | 15.2 µM (inactive) | 23.6 µM (inactive) | 30.4 µM (inactive) | 21.1 µM (inactive) | 27.5 µM (inactive) | 33.6 µM (inactive) | 15.9 µM (inactive) | 16.7 µM (inactive) | 27.5 µM (inactive) | 43.9 µM (inactive) | 18.4 µM (inactive) | 15.8 µM (inactive) | – | 15.9 µM (inactive) | 23.3 µM (inactive)
